Source: patent US7345070B2, “Peroxisome proliferator activated receptor agonists” (Eli Lilly and Company, priority 2000, dated 2008)

System: db/db mice
Test: Evaluation of glucose levels in db/db mice
Type: in vivo
Settings: Mus musculus, 168 h, 30 mg/kg oral gavage daily for 7 days, 100% = glucose not different from lean values, read-out: Glucose Normalisation
Procedure: Five week old male diabetic (db/db) mice [C57BlKs/j-m+/+ Lepr(db), Jackson Laboratory, Bar Harbor, Me.] or lean littermates (db+) were housed 6 per cage (10″×20″×8″ with aspen chip bedding) with food (Purina 5015) and water available at all times. After an acclimation period of 2 weeks, animals were individually identified by ear notches, weighed, and bled via the tail vein for determination of initial glucose levels. Blood was collected (100 μl) from unfasted animals by wrapping each mouse in a towel, cutting the tip of the tail with a scalpel, and milking blood from the tail into a heparinized capillary tube (Fisher) balanced on the edge of the bench. Sample was discharged into a heparinized microtainer with gel separator (VWR) and retained on ice. Plasma was obtained after centrifugation at 4° C. and glucose measured immediately. Remaining plasma was frozen until the completion of the experiment, when glucose and triglycerides were assayed in all samples. Animals were grouped based on initial glucose levels and body weights. Beginning the following morning, mice were dosed daily by oral gavage for 7 days using a 20 gauge, 1½″ curved disposable feeding needle. Treatments were test compounds (30 mg/kg), a positive control agent (30 mg/kg) or vehicle [1% carboxymethylcellulose (w/v)/0.25% Tween80 (w/v); 0.3 ml/mouse]. On day 7, mice were weighed and bled (tail vein) 3 hours after dosing. Twenty-four hours after the 7th dose (i.e., day 8), animals were bled again (tail vein). Samples obtained from conscious animals on days 0, 7 and 8 were assayed for glucose. After the 24 hour bleed, animals were weighed and dosed for the final time. Three hours after dosing on day 8, animals were anesthetized by inhalation of isoflurane and blood obtained via cardiac puncture (0.5-0.7 ml). Whole blood was transferred to serum separator tubes, chilled on ice and permitted to clot. Serum was obtained after centrifugation at 4° C. and frozen until analysis for compound levels. After sacrifice by cervical dislocation, the liver, heart and epididymal fat pads were excised and weighed.
The animals dosed with vehicle had average triglycerides values of 170-230 mg/dl, which were reduced by the positive PPARγ control (70-120 mg/dl with a mean reduction of 50%). Male db/db mice were hyperglycemic (average glucose of 680-730 mg/dl on the 7th day of treatment), while lean animals had average glucose levels between 190-230 mg/dl.
Glucose was measured […] using commercially purchased reagents (Sigma #315-500). According to the manufacturers, the procedures were modified from published work (McGowan, M. W., Artiss, J. D., Strandbergh, D. R. & Zak, B. Clin Chem, 20:470-5 (1974) and Keston, A. Specific colorimetric enzymatic analytical reagents for glucose. Abstract of papers 129th Meeting ACS, 31C (1956).); and depend on the release of a mole of hydrogen peroxide for each mole of analyte, coupled with a color reaction first described by Trinder (Trinder, P. Determination of glucose in blood using glucose oxidase with an alternative oxygen acceptor. Ann Clin Biochem, 6:24 (1969)). The absorbance of the dye produced is linearly related to the analyte in the sample. The assays were further modified in our laboratory for use in a 96 well format. Standards (Sigma #339-11, Sigma #16-11, and Sigma #CC0534 for glucose, triglycerides and total cholesterol, respectively), quality control plasma (Sigma # A2034), and samples (2 or 5 μl/well) were measured in duplicate using 200 μl of reagent. An additional aliquot of sample, pipetted to a third well and diluted in 200 μl water, provided a blank for each specimen. Plates were incubated at room temperature (18, 15, and 10 minutes for glucose, triglycerides and total cholesterol, respectively) on a plate shaker (DPC Micormix 5) and absorbance read at 500 nm (glucose and total cholesterol) or 540 nm (triglycerides) on a plate reader (Wallac Victor 1420). […]

**Q.** How did the inhibition in vivo at 30 mg/kg turn out when `COc1cccc(OC(C)(Cc2ccc(OCCc3nc(C4CCCCC4)oc3C)cc2)C(=O)O)c1` (centres unmarked) [Example 76, 3-{4-[2-(2-Cyclohexyl-5-methyl-oxazol-4-yl)-ethoxy]-phenyl}-2-(3-methoxy-phenoxy)-2-methyl-propionic acid] was run?
**A.** 97%

**Q.** With `Cc1oc(-c2ccccc2)nc1CCOc1ccc(CC(C)(Oc2ccc3c(c2)OCO3)C(=O)O)cc1` (centres unmarked) [Example 78, 2-(Benzo[1,3]dioxol-5-yloxy)-2-methyl-3-{4-[2-(5-methyl-2-phenyl-oxazol-4-yl)-ethoxy]-phenyl}-propionic acid] as the molecule, how does the inhibition in vivo at 30 mg/kg read?
**A.** 86%

**Q.** Which inhibition in vivo at 30 mg/kg does the source give for `Cc1oc(C2CCCCC2)nc1CCOc1ccc(CC(C)(Oc2ccc3c(c2)OCO3)C(=O)O)cc1` (centres unmarked) [Example 80, 2-(Benzo[1,3]dioxol-5-yloxy)-3-{4-[2-(2-cyclohexyl-5-methyl-oxazol-4-yl)-ethoxy]-phenyl}-2-methyl-propionic acid] here?
**A.** 83%

**Q.** With `Cc1oc(CCc2ccccc2)nc1CCOc1ccc(C[C@](C)(Oc2ccccc2)C(=O)O)cc1` [Example 86, (S)-2-Methyl-3-{4-[2-(5-methyl-2-phenethyl-oxazol-4-yl)-ethoxy]-phenyl}-2-phenoxy-propionic acid] as the molecule, how does the inhibition in vivo at 30 mg/kg read?
**A.** 92%

**Q.** `Cc1oc(-c2ccccc2)nc1CCCc1ccc(CC(C)(Oc2ccccc2)C(=O)O)s1` (centres unmarked) [Example 91, 2-Methyl-3-{5-[3-(5-methyl-2-phenyl-oxazol-4-yl)-propyl]-thiophen-2-yl}-2-phenoxy-propionic acid] was tested. Which inhibition in vivo at 30 mg/kg did it give?
**A.** 71%
